Data set [1] can be described thus: Real-time PK study of melphalan in whole blood by PS-MS/MS in patients undergoing HSCT. As to conditions: human, intravenous. It counts as in vivo. The method, then: Patients undergoing HSCT were administered by intravenous infusion a low dose of melphalan (referred to as the ‘test’ dose) to first determine each patient's individualized pharmacokinetics of the drug. After that the personalized optimal full dose was calculated from these measurements and then administered. The test dose equated to 10% of the expected standard full dose for each patient. Blood samples for pharmacokinetic measurement were collected after the test dose and again after the full standard dose of melphalan. Samples were collected at baseline, 5-10 mins before drug infusion, and then 5 min, 15 min, 30 min, 45 min, 1 h, 2h, 2.5h, 4h, and 6h post-infusion. […] Plasma samples from the same blood draw were also obtained after centrifugation at 3000 rpm for 15 min and stored at −80° C. degree until analyzed by both PS-MS/MS and LC-ESI-MS/MS. […]
PS-MS/MS was performed on an automated PS ion source (Prosolia, Inc. Indianapolis, Ind.) interfaced with a TSQ Quantum Ultra mass spectrometer (Thermo Scientific, San Jose, Calif.). […] A total of 50 scans in positive ion mode were acquired over 1 min for each m/z transition monitored. The transitions m/z 305.3 →246.2 for melphalan and the corresponding transition m/z 313.3→254.2 for the I.S. were used for quantification, while the transition m/z 305.3→194.2 served as a qualifier for melphalan confirmation. […]

A short description of data set [2]: PK of melphalan in plasma by ESI-LC-MS/MS in patients undergoing HSCT. It counts as in vivo. As to conditions: human, intravenous. The procedure: Patients undergoing HSCT were administered by intravenous infusion a low dose of melphalan (referred to as the ‘test’ dose) to first determine each patient's individualized pharmacokinetics of the drug. After that the personalized optimal full dose was calculated from these measurements and then administered. The test dose equated to 10% of the expected standard full dose for each patient. Blood samples for pharmacokinetic measurement were collected after the test dose and again after the full standard dose of melphalan. Samples were collected at baseline, 5-10 mins before drug infusion, and then 5 min, 15 min, 30 min, 45 min, 1 h, 2h, 2.5h, 4h, and 6h post-infusion. The blood samples were collected on ice and immediately transferred to the lab for PS-MS/MS analysis after collection to minimize drug degradation. Plasma samples from the same blood draw were also obtained after centrifugation at 3000 rpm for 15 min and stored at −80° C. degree until analyzed by both PS-MS/MS and LC-ESI-MS/MS.
Each patient's pharmacokinetic profile was determined using WinNonlin v6.4 (Pharsight, Mountain View, Calif.). […]
The PS-MS\MS method was validated in accordance with the FDA guidance for Bioanalytical Method Validation (fda.gov/downloads/Drugs/Guidance/ucm070107.pdf, May 2011), and Bansa S, et al., AAPS J., 2007, 9, 109-114. Specifically, three analytical runs were processed and analyzed to assess sensitivity, reproducibility, accuracy and precision. […] The assay accuracy was evaluated by comparing results obtained by PS-MS/MS to those obtained by a validated in-house LC-MS/MS melphalan assay for the same samples, wherein melphalan samples were measured by liquid chromatography-tandem mass spectrometry (LC-MS/MS) with selected-reaction monitoring and with the use of stable isotopic-labeled [2H8]-melphalan as the internal standard. Samples were analyzed with the LC20AD HPLC system (Shimadzu) coupled to the TSQ Quantum Ultra Triple Quadrupole Mass Spectrometer (Thermo Scientific). […]

Another data set has as its system plasma proteins. Particulars: cited from earlier work.
The conditions of data set [3]: ambient temperature; hydrolyzed to monohydroxymelphalan, then dihydroxymelphalan; cited from earlier work.

Molecules are shown by their SMILES.

The values below come from patent US20220205982A1 (CHILDREN'S HOSPITAL MEDICAL CENTER, priority 2019, published 2022).

Consider `N[C@@H](Cc1ccc(N(CCCl)CCCl)cc1)C(=O)O` [melphalan, 4-[Bis(2-chloroethyl)amino]-L-phenylalanine], for which the AUC is 410 ± 230 ng·h/mL in data set [1] (10 % of the expected standard full dose, lower test doses, PS-MS/MS, n=4, read-out: calculated mean AUC); 4900 ± 1500 ng·h/mL in data set [1] (full dose, PS-MS/MS method, n=5, read-out: calculated mean AUC); 430 ± 210 ng·h/mL in data set [2] (10 % of the expected standard full dose, lower test doses, ESI-LC-MS/MS, n=4, read-out: calculated mean AUC); 3900 ng·h/mL in data set [2] (Full Dose, individual patients and mean row, read-out: ESI-LC-MS/MS Plasma AUC); 4300 ± 1000 ng·h/mL in data set [2] (full dose, ESI-LC-MS/MS method, n=5, read-out: calculated mean AUC). Moreover, in the data set on plasma proteins, the interactions with immunoglobulins entry is reported as “negligible”. For the same molecule, in the data set on plasma proteins (plasma), the “melphalan (covalently) irreversibly bound to plasma proteins” value is reported as “Approximately 30%”. Moreover, the “stability in blood and plasma” value in data set [3] is on record as “unstable”.
